A word on the melting point: it is the temperature, or range, at which the solid turns liquid.

Compound `N#CCC(=O)N[C@H]1CC[C@H](CCN2CCN(c3cccc(-c4ncco4)c3)CC2)CC1` [Example 530, 2-Cyano-N-(4-{2-[4-(3-oxazol-2-ylphenyl)piperazin-1-yl]ethyl}cyclohexyl)acetamide] showed a melting point of 185 °C.

Compound `O=C(N[C@H]1CC[C@H](CCN2CCN(c3cccc(-c4ncco4)c3)CC2)CC1)C1=COCC1` [Example 532, 4,5-Dihydrofuran-3-carboxylic acid(4-{2-[4-(3-oxazol-2-ylphenyl)piperazin-1-yl]ethyl}cyclohexyl) amide] gave a melting point of 202 °C. `CCOC(=O)CN1CCC(CCN2CCN(c3cccc(C)c3C)CC2)CC1` [Example 533, (4-{2-[4-(2,3-Dimethylphenyl)piperazin-1-yl]ethyl}piperidin-1-yl)acetic acid ethyl ester] displayed a melting point of 82 °C. The figure for `Cc1ccc(F)c(N2CCN(CC[C@H]3CC[C@H](NC(=O)C4=CCCC4)CC3)CC2)c1` [Example 534, Cyclopent-1-enecarboxylic acid (4-{2-[4-(2-fluoro-5-methylphenyl)piperazin-1-yl]ethyl}cyclohexyl) amide] is 174 °C; for `CCOc1cccc(N2CCN(CC[C@H]3CC[C@H](NC(=O)CCCC#N)CC3)CC2)c1` [Example 535, 4-Cyano-N-(4-{2-[4-(3-ethoxyphenyl)piperazin-1-yl]ethyl}cyclohexyl)butanamide] it is 121 °C. Regarding `Cc1ccc(N2CCN(CC[C@H]3CC[C@H](NC(=O)C4=CCCC4)CC3)CC2)cc1F` [Example 537, Cyclopent-1-enecarboxylic acid (4-{2-[4-(3-fluoro-4-methylphenyl)piperazin-1-yl]ethyl}cyclohexyl) amide], the melting point is 220 °C. In the case of `Cc1ccc(N2CCN(CC[C@H]3CC[C@H](NC(=O)CCCC#N)CC3)CC2)cc1F` [Example 538, 4-Cyano-N-(4-{2-[4-(3-fluoro-4-methylphenyl)piperazin-1-yl]ethyl}cyclohexyl)butanamide], the melting point worked out at 180 °C. The compound `CCOCC(=O)N[C@H]1CC[C@H](CCN2CCN(c3ccc(C)c(F)c3)CC2)CC1` [Example 539, 2-Ethoxy-N-(4-{2-[4-(3-fluoro-4-methylphenyl)piperazin-1-yl]ethyl}cyclohexyl)acetamide] returned a melting point of 124 °C. Compound `CCC(O)c1cccc(N2CCN(CC[C@H]3CC[C@H](NC(=O)CCCC#N)CC3)CC2)c1` (stereo partly shown) [Example 540, 4-cyano-N-[4-(2-{4-[3-(1-hydroxypropyl)phenyl]piperazin-1-yl}ethyl)cyclohexyl]butanamide] yielded a melting point of 151 °C. The figure for `COCC(=O)N[C@H]1CC[C@H](CCN2CCN(c3cc(F)c(F)c(F)c3)CC2)CC1` [Example 542, 2-Methoxy-N-(4-{2-[4-(3,4,5-trifluorophenyl)piperazin-1-yl]ethyl}cyclohexyl)acetamide] is 153 °C; for `O=C(N[C@H]1CC[C@H](CCN2CCN(c3ccc(F)c(F)c3F)CC2)CC1)C1=CCCC1` [Example 543] it is 213 °C; for `N#CCCCC(=O)N[C@H]1CC[C@H](CCN2CCN(c3ccc(C(F)(F)F)cc3)CC2)CC1` [Example 544, 4-Cyano-N-(4-{2-[4-(4-trifluoromethylphenyl)piperazin-1-yl]ethyl}cyclohexyl)butanamide] it is 207 °C. `COCCCC(=O)N[C@H]1CC[C@H](CCN2CCN(c3cccc(Cl)c3C)CC2)CC1` [Example 547, N-(4-{2-[4-(3-Chloro-2-methylphenyl)piperazin-1-yl]ethyl}cyclohexyl)-4-methoxybutanamide]: the melting point is 188 °C. `N#CCC(=O)N[C@H]1CC[C@H](CCN2CCN(c3ccc(F)c(Cl)c3F)CC2)CC1` [Example 551, N-(4-{2-[4-(3-Chloro-2,4-difluorophenyl)piperazin-1-yl]ethyl}cyclohexyl)-2-cyanoacetamide]: the melting point was found to be 198 °C. The figure for `N#CCCCC(=O)N[C@H]1CC[C@H](CCN2CCN(c3ccc(F)c(Cl)c3F)CC2)CC1` [Example 552, N-(4-{2-[4-(3-Chloro-2,4-difluorophenyl)piperazin-1-yl]ethyl}cyclohexyl)-4-cyanobutanamide] is 192 °C; for `Cc1ccccc1N1CCN(CC[C@H]2CC[C@H](NC(=O)C3=CCCC3)CC2)CC1` [Example 556, Cyclopent-1-enecarboxylic acid {4-[2-(4-o-tolylpiperazin-1-yl)ethyl]cyclohexyl} amide] it is 181 °C; for `CCOCC(=O)N[C@H]1CC[C@H](CCN2CCN(c3ccccc3C)CC2)CC1` [Example 557] it is 101 °C. In the case of `N#CCCCC(=O)N[C@H]1CC[C@H](CCN2CCc3cc(C#N)ccc3C2)CC1` [Example 558, 4-Cyano-N-{4-[2-(6-cyano-3,4-dihydro-1H-isoquinolin-2-yl)ethyl]cyclohexyl}butanamide], the melting point came to 177 °C. The figure for `N#CCC(=O)N[C@H]1CC[C@H](CCN2CCc3cc(C#N)ccc3C2)CC1` [Example 559, 2-Cyano-N-{4-[2-(6-cyano-3,4-dihydro-1H-isoquinolin-2-yl)ethyl]cyclohexyl}acetamide] is 206 °C.

Compound `CCc1cccc(N2CCN(CC[C@H]3CC[C@H](NC(=O)CCCOC)CC3)CC2)c1` [Example 560, N-(4-{2-[4-(3-Ethylphenyl)piperazin-1-yl]ethyl}cyclohexyl)-4-methoxybutanamide] yielded a melting point of 130 °C.

As to `CCc1cccc(N2CCN(CC[C@H]3CC[C@H](NC(=O)C4=CCCCO4)CC3)CC2)c1` [Example 561, 5,6-Dihydro-4H-pyran-2-carboxylic acid (4-{2-[4-(3-ethylphenyl)piperazin-1-yl]ethyl}cyclohexyl) amide], the melting point was found to be 135 °C.

As to `O=C(N[C@H]1CC[C@H](CCN2CCN(c3cccc(C(F)(F)F)c3)CC2)CC1)C1=CCCCO1` [Example 562, 5,6-Dihydro-4H-pyran-2-carboxylic acid (4-{2-[4-(3-trifluoromethylphenyl)piperazin-1-yl]ethyl}cyclohexyl) amide], the melting point came to 142 °C. The figure for `CCOCC(=O)N[C@H]1CC[C@H](CCN2CCN(c3cccc(CC)c3)CC2)CC1` [Example 563, 2-Ethoxy-N-(4-{2-[4-(3-ethylphenyl)piperazin-1-yl]ethyl}cyclohexyl)acetamide] is 100 °C.

In the case of `O=C(N[C@H]1CC[C@H](CCN2CCN(c3cccc(C(F)(F)F)c3)CC2)CC1)C1=COCC1` [Example 564, 4,5-Dihydrofuran-3-carboxylic acid (4-{2-[4-(3-trifluoromethylphenyl)piperazin-1-yl]ethyl}cyclohexyl) amide], the melting point was determined as 175 °C. Compound `O=C(N[C@H]1CC[C@H](CCN2CCN(c3ccc(F)cc3F)CC2)CC1)C1=CCCCO1` [Example 565, 5,6-Dihydro-4H-pyran-2-carboxylic acid (4-{2-[4-(2,4-difluorophenyl)piperazin-1-yl]ethyl}cyclohexyl) amide] came in with a melting point of 160 °C. `CCC(O)c1cccc(N2CCN(CC[C@H]3CC[C@H](NC(=O)CC#N)CC3)CC2)c1` (stereo partly shown) [Example 566, 2-cyano-N-[4-(2-{4-[3-(1-hydroxypropyl)phenyl]piperazin-1-yl}ethyl)cyclohexyl]acetamide] registered a melting point of 157 °C. The figure for `COCCCC(=O)N[C@H]1CC[C@H](CCN2CCN(c3cc(F)c(F)c(F)c3)CC2)CC1` [Example 568, 4-Methoxy-N-(4-{2-[4-(3,4,5-trifluorophenyl)piperazin-1-yl]ethyl}cyclohexyl)butanamide] is 194 °C; for `COc1ccc(N2CCN(CC[C@H]3CC[C@H](NC(=O)C4=CCCC4)CC3)CC2)cc1` [Example 571, Cyclopent-1-enecarboxylic acid (4-{2-[4-(4-methoxyphenyl)-piperazin-1-yl]ethyl}cyclohexyl) amide] it is 205 °C. For `CCOCC(=O)N[C@H]1CC[C@H](CCN2CCN(c3ccc(OC)cc3)CC2)CC1` [Example 572, 2-Ethoxy-N-(4-{2-[4-(4-methoxyphenyl)piperazin-1-yl]ethyl}cyclohexyl)acetamide], the melting point came out at 132 °C. The figure for `COc1ccc(N2CCN(CC[C@H]3CC[C@H](NC(=O)CC#N)CC3)CC2)cc1` [Example 573, 2-Cyano-N-(4-{2-[4-(4-methoxyphenyl)piperazin-1-yl]ethyl}cyclohexyl)acetamide] is 227 °C.

`N#CCC(=O)N[C@H]1CC[C@H](CCN2CCN(c3cc(F)c(C(F)(F)F)c(F)c3)CC2)CC1` [Example 574, 2-Cyano-N-(4-{2-[4-(3,5-difluoro-4-trifluoromethylphenyl)piperazin-1-yl]ethyl}cyclohexyl) acetamide] had a melting point of 231 °C. The figure for `CC(C)C(O)c1cccc(N2CCN(CC[C@H]3CC[C@H](NC(=O)CC#N)CC3)CC2)c1` (stereo partly shown) [Example 575, 2-cyano-N-[4-(2-{4-[3-(1-hydroxy-2-methylpropyl)phenyl]piperazin-1-yl}ethyl)cyclohexyl]acetamide] is 119 °C. Turning to `CC(=O)CN1CCC(CCN2CCN(c3ccc4c(c3)CCCC4)CC2)CC1` [Example 576], the melting point was found to be 75 °C. `CCOCC(=O)N[C@H]1CC[C@H](CCN2CCN(c3cc(C)cc(Cl)c3)CC2)CC1` [Example 577, N-(4-{2-[4-(3-Chloro-5-methylphenyl)piperazin-1-yl]ethyl}cyclohexyl)-2-ethoxyacetamide] showed a melting point of 100 °C. With `COCCCC(=O)N[C@H]1CC[C@H](CCN2CCN(c3cc(C)cc(Cl)c3)CC2)CC1` [Example 578, N-(4-{2-[4-(3-Chloro-5-methylphenyl)piperazin-1-yl]ethyl}cyclohexyl)-4-methoxybutanamide], the melting point was found to be 167 °C.

In the case of `CCOCC(=O)N[C@H]1CC[C@H](CCN2CCN(c3cc(C)c(F)cc3Cl)CC2)CC1` [Example 579, N-(4-{2-[4-(2-Chloro-4-fluoro-5-methylphenyl)piperazin-1-yl]ethyl}cyclohexyl)-2-ethoxyacetamide], the melting point was determined as 132 °C. Compound `COCCCC(=O)N[C@H]1CC[C@H](CCN2CCN(c3cc(C)c(F)cc3Cl)CC2)CC1` [Example 580, N-(4-{2-[4-(2-Chloro-4-fluoro-5-methylphenyl)piperazin-1-yl]ethyl}cyclohexyl)-4-methoxybutanamide] showed a melting point of 171 °C.

The values are drawn from patent US8802678B2, “Carbonylated (aza) cyclohexanes as dopamine D3 receptor ligands” (Bioprojet, priority 2006, dated 2014).
